Assay [1] concerns the target T1, (1,3)-β-Glucan Synthase (Candida albicans, UniProt O13428).
T1 construct: microsomal enzyme preparation C. albicans CCH 442; endogenous in cells; host or cells: Candida albicans CCH 442, microsomes
The experiment in a line: In vitro inhibition of (1,3)-β-glucan synthase activity, microsomal enzyme preparation. In kind it is biochemical. The settings on record: C. albicans CCH 442 microsomal enzyme. How it is done:
The assay was conducted in a final volume of 100 μL of 2.0 mM UDP-[^14 C]-Glc (0.625 mCi/mmol), 1 mM EDTA, 8% (v/v) glycerol, 20 μM GTPgS, 0.5% Brij-35(v/v) or 0.8% BSA, 80 mM Tris/HCl, pH 7.75, and microsomal enzyme preparation C. albicans CCH 442 (100 μg of protein). A detailed description of this assay is described by Frost, D., Brandt, K. Capobioanco, and Goldman, R., Microbiology 140: 2239-2246 (1994) which is incorporated herein by reference.

The target in assay [2] is T2, glucan synthase (Candida albicans, UniProt O13428).
T2 construct: Microsomes isolated from mid-log phase grown yeast; endogenous in cells; host or cells: Candida albicans, mid-log phase yeast cells, microsomes
The experiment in a line: Microtiter screen for inhibitors of (1,3)-β-glucan formation in cell free extracts. In kind it is biochemical. To be noted: C. albicans microsomes, [14C]UDP-Glc, water-insoluble β-glucan product on filter; read-out: IC50 (converted). An excerpt:
The fungal cell wall serves as a protective barrier and is essential for viability in a hypotonic environment. (1,3)-β-Glucan is a component of the Candida albicans cell wall, and the enzyme that biosynthesizes this polymer, glucan synthase, is not present in higher eukaryotes. (Glucan synthase is an integral plasma membrane protein that catalyzes polymerization of uridine diphosphate-glucose (UDP-Glc) into β-glucan.) Accordingly, glucan synthase represents an ideal target for the development of antifungal agents.
A microtiter screen was established to detect inhibitors of (1 ,3)-β-glucan formation in C. albicans cell free extracts. Microsomes isolated from mid-log phase grown yeast were incubated with [^14 C]UDP-Glc, effectors and test compound (fusacandin A, Example 4). The formation of the water-insoluble β-glucan product was measured on a filter after removing the substrate with water washes.

Assay [3] has as its system Streptococcus bovis A-5169. Kind of assay: MIC by agar dilution method. It is filed as cell-based. To be noted: Streptococcus equinus, A5169; Table 6a; Streptococcus bovis A-5169; agar dilution, 32° C., 20 hours; read-out: MIC.
Assay [4] deals with Nocardia asteroides ATTC 9970. Kind of assay: MIC by agar dilution method. In kind it is cell-based. To be noted: ATTC9970; Table 6a; Nocardia asteroides ATTC 9970; agar dilution, 32° C., 20 hours; read-out: MIC.
Assay [5] has as its system Candida tropicalis NRRL-Y-1. Kind of assay: MIC by agar dilution method. In kind it is cell-based. To be noted: NRRLY1; Table 6a; Candida tropicalis NRRL-Y-1; agar dilution, 32° C., 20 hours; read-out: MIC. The method in brief: (§1)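 Agar dilution; MeOH compound dilutions in Sabouraud dextrose agar; inoculum 10^4 cells (Petroff-Hauser count) from 18 h, 32° C growth in PBS; plates 32° C, read at 20 h.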
Background: In agar dilution, organisms are placed on agar that contains the substance at set levels.

In assay [6] the test system is Candida albicans ATCC 10231. The experiment in a line: MIC by agar dilution method. In kind it is cell-based. To be noted: ATCC10231; Table 6c; I Candida albicans ATCC 10231; agar dilution; read-out: MIC I. The essentials:
as §1

Assay [7] concerns Candida kefyr ATTC 288. Kind of assay: MIC by agar dilution method. It is filed as cell-based. To be noted: Kluyveromyces marxianus, ATTC288; Table 6a; Candida kefyr ATTC 288; agar dilution, 32° C., 20 hours; read-out: MIC. The method in brief: as §1
For assay [8], the system named is Candida albicans ATCC 997. Kind of assay: MIC by agar dilution method. It is filed as cell-based. The settings on record: ATCC997; Table 6a; Candida albicans ATCC 997; agar dilution, 32° C., 20 hours; read-out: MIC. The method in brief: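 Agar dilution in Sabouraud dextrose agar with compounds serially diluted in MeOH; yeast inoculum from 18 h cultures at 32 °C, filamentous fungi grown 4 days for spores, all adjusted to 10^4 cells. Plates incubated at 32 °C and read after 20 h; cycloheximide or amphotericin B as controls.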

The test system of assay [9] is Candida albicans ATCC 62376. The experiment in a line: MIC by agar dilution method. To be noted: ATCC62376; Table 6c; V Candida albicans ATCC 62376; agar dilution; read-out: MIC V. In kind it is cell-based. The method in brief:
as §1

The subject of assay [10] is Torulopsis glabrata ATCC 155. The experiment in a line: MIC by agar dilution method. The settings on record: Nakaseomyces glabratus, ATCC155; Table 6a; Torulopsis glabrata ATCC 155; agar dilution, 32° C., 20 hours; read-out: MIC. It is filed as cell-based. The method in brief: as §1
In assay [11] the test system is Candida albicans ATCC 623. The experiment in a line: MIC by agar dilution method. In kind it is cell-based. The settings on record: ATCC623; Table 6a; Candida albicans ATCC 623; agar dilution, 32° C., 20 hours; read-out: MIC. The method in brief: as §1
Assay [12] concerns Aspergillus niger ATCC 164. Kind of assay: MIC by agar dilution method. It is filed as cell-based. To be noted: ATCC164; Table 6a; Aspergillus niger ATCC 164; agar dilution, 32° C., 20 hours; read-out: MIC. The method in brief: as §1
Assay [13] concerns Candida albicans ATCC 38247. The experiment in a line: MIC by agar dilution method. To be noted: ATCC38247; Table 6c; IV Candida albicans ATCC 38247; agar dilution; read-out: MIC IV. It is filed as cell-based. The essentials: as §1
Assay [14] relates to Candida albicans CCH 442. The experiment in a line: MIC by agar dilution method. It is filed as cell-based. The settings on record: CCH442, agar dilution. The method in brief:
as §1

Assay [15] concerns Saccharomyces cereviseae GS1-36. Kind of assay: MIC by agar dilution method. In kind it is cell-based. To be noted: GS136; Table 6a; Saccharomyces cereviseae GS1-36; agar dilution, 32° C., 20 hours; read-out: MIC. The method in brief: as §1
In assay [16] the test system is Candida albicans 579a. Kind of assay: MIC by agar dilution method. In kind it is cell-based. The settings on record: Table 6c; II Candida albicans 579a; agar dilution; read-out: MIC II. The method in brief:
as §1

Assay [17] can be described thus: MIC by broth dilution assay. The settings on record: 144 h, Table 6d, no sorbitol, 2 ×10^5 organisms/mL. In kind it is cell-based. How it is done:
Minimal inhibitory concentrations (MICs) were determined by a broth dilution assay described by Frost, D., Brandt, K., Cugier, D., and Goldman, R. in J. Antibiotics 48: 306-310 (1995) which is incorporated herein by reference. The final concentration of cells was 2 ×10^5 organisms/mL.

The test system of assay [18] is Staphylococcus aureus ATTC 6538p. Kind of assay: MIC by agar dilution method. To be noted: ATTC6538P; Table 6a; Staphylococcus aureus ATTC 6538p; agar dilution, 32° C., 20 hours; read-out: MIC. In kind it is cell-based.
Assay [19] in a line: Minimum inhibitory concentration (MIC) stated with the glucan synthase screen. To be noted: organism not given. It is filed as cell-based.
In assay [20] the test system is Streptococcus pyrogenes EES61. Kind of assay: MIC by agar dilution method. It is filed as cell-based. The settings on record: Table 6a; Streptococcus pyrogenes EES61; agar dilution, 32° C., 20 hours; read-out: MIC.

≈ marks a conversion by molar mass, not a printed value. Read-outs that look alike come from different tables or passages of the source.

T1 sequence (O13428 1-1897): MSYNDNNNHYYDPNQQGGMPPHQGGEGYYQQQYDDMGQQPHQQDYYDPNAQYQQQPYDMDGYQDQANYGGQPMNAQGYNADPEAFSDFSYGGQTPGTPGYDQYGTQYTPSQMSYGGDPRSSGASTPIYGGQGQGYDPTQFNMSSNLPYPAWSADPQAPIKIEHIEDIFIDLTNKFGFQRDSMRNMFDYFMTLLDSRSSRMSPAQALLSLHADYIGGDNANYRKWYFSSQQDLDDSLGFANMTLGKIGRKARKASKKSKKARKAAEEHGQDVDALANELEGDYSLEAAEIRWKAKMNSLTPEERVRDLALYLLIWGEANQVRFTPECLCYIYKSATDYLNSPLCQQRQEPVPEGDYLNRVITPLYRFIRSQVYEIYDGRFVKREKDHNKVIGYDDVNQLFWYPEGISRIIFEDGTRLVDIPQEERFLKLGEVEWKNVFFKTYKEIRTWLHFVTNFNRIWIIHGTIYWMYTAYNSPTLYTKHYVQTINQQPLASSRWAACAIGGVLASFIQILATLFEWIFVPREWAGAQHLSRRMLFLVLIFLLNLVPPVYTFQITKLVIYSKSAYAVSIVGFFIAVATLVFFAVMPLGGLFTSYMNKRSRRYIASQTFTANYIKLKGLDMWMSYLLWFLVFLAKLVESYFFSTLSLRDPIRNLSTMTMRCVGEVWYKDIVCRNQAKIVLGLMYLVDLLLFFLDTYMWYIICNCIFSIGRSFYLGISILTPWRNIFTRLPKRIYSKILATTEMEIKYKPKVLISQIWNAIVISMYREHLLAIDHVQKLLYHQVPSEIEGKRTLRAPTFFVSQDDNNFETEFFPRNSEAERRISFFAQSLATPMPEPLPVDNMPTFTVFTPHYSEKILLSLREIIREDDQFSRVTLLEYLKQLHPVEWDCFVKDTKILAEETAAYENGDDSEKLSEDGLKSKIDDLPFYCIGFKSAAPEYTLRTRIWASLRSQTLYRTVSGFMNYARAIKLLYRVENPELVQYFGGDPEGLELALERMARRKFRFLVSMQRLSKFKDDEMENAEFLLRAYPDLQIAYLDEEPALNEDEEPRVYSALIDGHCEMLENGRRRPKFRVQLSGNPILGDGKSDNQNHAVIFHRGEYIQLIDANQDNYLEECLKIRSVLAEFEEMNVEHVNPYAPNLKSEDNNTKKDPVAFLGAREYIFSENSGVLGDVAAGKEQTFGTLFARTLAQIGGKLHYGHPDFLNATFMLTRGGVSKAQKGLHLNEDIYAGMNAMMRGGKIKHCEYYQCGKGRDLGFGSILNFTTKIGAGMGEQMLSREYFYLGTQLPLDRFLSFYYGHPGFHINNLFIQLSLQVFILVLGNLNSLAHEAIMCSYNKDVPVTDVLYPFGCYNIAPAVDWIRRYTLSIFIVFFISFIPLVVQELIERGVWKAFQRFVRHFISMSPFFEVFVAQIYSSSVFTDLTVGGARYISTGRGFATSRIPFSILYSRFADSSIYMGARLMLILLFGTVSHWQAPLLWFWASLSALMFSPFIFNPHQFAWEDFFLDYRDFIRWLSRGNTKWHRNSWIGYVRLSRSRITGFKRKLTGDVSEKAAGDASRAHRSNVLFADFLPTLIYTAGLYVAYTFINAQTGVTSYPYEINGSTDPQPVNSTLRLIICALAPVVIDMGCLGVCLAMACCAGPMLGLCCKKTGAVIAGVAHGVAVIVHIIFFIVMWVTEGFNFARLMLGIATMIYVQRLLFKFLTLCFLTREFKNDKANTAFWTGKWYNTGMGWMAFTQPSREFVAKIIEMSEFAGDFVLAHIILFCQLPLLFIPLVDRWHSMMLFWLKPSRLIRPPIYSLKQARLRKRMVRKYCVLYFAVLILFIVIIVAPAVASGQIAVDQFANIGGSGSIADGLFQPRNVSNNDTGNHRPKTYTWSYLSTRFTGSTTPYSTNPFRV
T2 sequence (O13428 1-1897): as above

The IC50 is the concentration needed to halve the response being measured. As a reminder, the MIC is the lowest concentration that inhibits growth of the organism. For the molecule `CCCCCC=CC=CC(=O)OCC1OC(OC2C(CO)OC(c3c(O)cc(O)cc3CO)C(O)C2OC(=O)C=CC=CCC(O)C=CC=CCCCCC)C(OC2OC(CO)C(O)C(O)C2O)C(O)C1O` (stereo not shown) [Example 4, fusacandin A], the IC50 is 6.84 µM in assay [1] (0.5% Brij-35, read-out: IC50 With Brij-35 (converted)); 111 µM in assay [1] (0.8% BSA, read-out: IC50 With BSA (converted)); 20 µM in assay [2]. In addition, the MIC in [3] amounted to 12.5 µg/mL (≈ 12.2 µM); in assay [4], 12.5 µg/mL (≈ 12.2 µM); in assay [5], 6.25 µg/mL (≈ 6.11 µM); in assay [6] it was 1.56 µg/mL (≈ 1.52 µM); in assay [7], 6.25 µg/mL (≈ 6.11 µM); in assay [8] it was 12.5 µg/mL (≈ 12.2 µM). Besides, the minimum inhibitory concentration (MIC) in assay [9] was found to be 1.56 µg/mL (≈ 1.52 µM); in [10], 3.12 µg/mL (≈ 3.05 µM); in assay [11] it was 6.25 µg/mL (≈ 6.11 µM); in [12], 6.25 µg/mL (≈ 6.11 µM); in assay [13], 0.78 µg/mL (≈ 0.762 µM); in assay [14] (Table 6a, Candida albicans CCH 442, 32° C., 20 hours, read-out: MIC), 6.26 µg/mL (≈ 6.12 µM). The MIC stood at 0.78 µg/mL (≈ 0.762 µM) in assay [14] (Table 6c, 3rd value column (head printed II), III Candida albicans CCH 442, read-out: MIC II); 3.12 µg/mL (≈ 3.05 µM) in assay [15]; 0.78 µg/mL (≈ 0.762 µM) in [16]; 0.48 µg/mL (≈ 0.469 µM) in [17]; 50 µg/mL (≈ 48.9 µM) in assay [18]; 0.5 µg/mL (≈ 0.489 µM) in [19]. For the same molecule, the MIC in assay [20] was found to be 6.25 µg/mL (≈ 6.11 µM).
